31 compounds from US9464060B2, “Compounds” (TAKEDA PHARMACEUTICAL COMPANY LIMITED, priority 2013, dated 2016) can be followed below.

The target of one test is LPA5 receptor (Homo sapiens (Human), UniProt Q9H1C0). The experiment in a line: In vitro LPA5 receptor assay (LPA-driven intracellular calcium release, FLIPR). The settings on record: RH7777 cells expressing human LPA5 receptors; LPA at EC90. In kind it is cell-based. Here is the method:
In Vitro LPA5 Receptor Assay
Engagement of the LPA5 receptor by its ligand, oleoyl-L-α-lysophosphatidic acid (LPA), leads to the release of intracellular stores of calcium into the cytoplasm mediated through a Gq-driven increase in inositol triphosphate (IP3) levels. Gq is a heterotrimeric G protein subunit that activates phospholipase C.
The ability of test compounds to prevent LPA-driven intracellular release of stored calcium from RH7777 cells expressing human LPA5 receptors was assayed by stimulating the cells with LPA in the presence of various test compounds to measure the test compounds'antagonism, i.e. activity in vitro.
(§1) Approximately 10,000 cells in normal culture medium (Minimal Essential Media, 10% Foetal Calf Serum) were dispensed per assay well in a black clear bottom poly-D-lysine coated 384 well plate (Corning). Cells were allowed to settle for thirty minutes at room temperature before being incubated overnight at 37° C., 5% CO2. Sixteen to twenty hours after dispensing, the cells were loaded with a calcium-sensitive fluorescent dye by replacing the culture medium with assay buffer (1× Hanks buffered saline, 25 mM HEPES, 0.1% w/v fatty acid free BSA (bovine serum albumin), pH7.4) containing 1.25 mM probenecid and 1× Calcium 5 Reagent (Molecular Devices). Cells were incubated at 37° C. for one hour to allow for dye uptake.
To test for antagonist activity, test compounds at a final concentration range between 0.32 nM-10 μM (diluted in assay buffer) were added to the assay wells and allowed to incubate for fifteen minutes. […] Ligand-dependent changes in intracellular calcium levels were determined by measuring changes in fluorescence of the dye over […] following excitation over […].

The target of the next test is human LPA1 receptors (Homo sapiens (Human), UniProt Q92633). The experiment in a line: In vitro LPA1 receptor assay (LPA-driven intracellular calcium release, FLIPR). It counts as cell-based. The settings on record: RH7777 cells expressing human LPA1 receptors; LPA at EC80. How it is done: In Vitro LPA1 Receptor Assay
Engagement of the LPA1 receptor by its ligand, oleoyl-L-α-lysophosphatidic acid (LPA), leads to the release of intracellular stores of calcium into the cytoplasm mediated through a Gq-driven increase in inositol triphosphate (IP3) levels. Gq is a heterotrimeric G protein subunit that activates phospholipase C.
The ability of test compounds to prevent LPA-driven intracellular release of stored calcium from RH7777 cells expressing human LPA1 receptors was assayed by stimulating the cells with LPA in the presence of various test compounds to measure the test compounds' antagonism, i.e. activity in vitro.
as §1, with “(Dulbecco's Modified Eagle” for “(Minimal Essential”, “collagen” for “poly-D-lysine”, “(Beckton Dickinson).” for “(Corning).”
To test for antagonist activity, test compounds at a final concentration range between 0.32 nM-10 μM (diluted in assay buffer) were added to the assay wells and allowed to incubate for twenty five minutes. […] Ligand-dependent changes in intracellular calcium levels were determined by measuring changes in fluorescence of the dye over […] following excitation over […].
For orientation: Calcium assays in cells follow changes in intracellular calcium, usually with a dye or a luminescent sensor.

pIC50: −log10 of the molar value.

Chain of LPA5 receptor (Q9H1C0 whole entry): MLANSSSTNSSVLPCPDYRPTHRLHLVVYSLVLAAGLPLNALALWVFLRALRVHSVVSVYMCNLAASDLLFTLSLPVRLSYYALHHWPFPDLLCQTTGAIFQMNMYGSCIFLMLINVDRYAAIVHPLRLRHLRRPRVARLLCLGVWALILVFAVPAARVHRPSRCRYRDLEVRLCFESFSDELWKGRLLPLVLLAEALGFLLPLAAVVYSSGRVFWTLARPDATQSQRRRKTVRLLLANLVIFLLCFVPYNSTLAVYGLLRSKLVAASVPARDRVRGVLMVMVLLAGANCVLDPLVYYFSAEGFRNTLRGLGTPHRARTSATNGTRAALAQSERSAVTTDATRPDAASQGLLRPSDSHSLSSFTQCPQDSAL
Chain of human LPA1 receptors (Q92633 whole entry): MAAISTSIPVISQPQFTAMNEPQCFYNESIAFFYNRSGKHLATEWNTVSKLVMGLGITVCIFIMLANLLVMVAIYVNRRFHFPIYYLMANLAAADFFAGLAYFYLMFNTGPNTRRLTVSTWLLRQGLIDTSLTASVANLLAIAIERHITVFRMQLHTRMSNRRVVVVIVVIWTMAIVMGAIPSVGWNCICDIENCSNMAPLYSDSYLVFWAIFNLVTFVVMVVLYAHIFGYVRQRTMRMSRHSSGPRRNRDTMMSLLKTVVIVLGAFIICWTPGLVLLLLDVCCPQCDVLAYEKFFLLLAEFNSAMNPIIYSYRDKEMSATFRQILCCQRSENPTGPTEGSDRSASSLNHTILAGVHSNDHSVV

As usually defined, the pIC50 is the IC50 on a negative log10 scale, so that one unit is a factor of ten. Turning to `O=C(O)c1ccc(CN(CCc2ccccc2)C(=O)c2ccc(Oc3ccccc3F)cc2)cc1` [Example 15, 4-((4-(2-Fluorophenoxy)-N-phenethylbenzamido)methyl)benzoic acid], the pIC50 at LPA5 receptor is 6.92. For the compound `O=C(O)c1ccc(CN(C[C@H](O)Cc2ccccc2)C(=O)c2ccc(Oc3ccccc3F)cc2)cc1` [Example 20, (R)-4-((4-(2-Fluorophenoxy)-N-(2-hydroxy-3-phenylpropyl)-benzamido)methyl)benzoic acid], the pIC50 at human LPA1 receptors was 7.92; on LPA5 receptor, 7.40. Regarding `O=C(O)c1ccc(CN(CCCc2cccc(F)c2)C(=O)c2ccc(Oc3ccccc3F)cc2)cc1` [Example 17, 4-((4-(2-Fluorophenoxy)-N-(3-(3-fluorophenyl)propyl)benzamido)methyl)benzoic acid], the negative-log IC50 (pIC50) on human LPA1 receptors was 9.40; on LPA5 receptor, 9.00. With `O=C(O)c1ccc(CN(CC2CC2)C(=O)c2ccc(OCc3ccccc3F)cc2)cc1` [Example 51, 4-((N-(Cyclopropylmethyl)-4-((2-fluorobenzyl)oxy)benzamido)-methyl)benzoic acid], the pIC50 at LPA5 receptor is 7.28.

Regarding `N#Cc1ccccc1Oc1ccc(C(=O)N(Cc2ccccc2)Cc2ccc(C(=O)O)cc2)cc1` [Example 27, 4-((N-Benzyl-4-(2-cyanophenoxy)benzamido)methyl)benzoic acid], the pIC50 on LPA5 receptor is 6.70. On the same count and under the same terms, the figure for `COc1cccc(CN(Cc2ccc(C(=O)O)c(F)c2)C(=O)c2ccc(Oc3ccccc3F)cc2)c1` [Example 59, 2-Fluoro-4-((4-(2-fluorophenoxy)-N-(3-methoxybenzyl)benzamido)methyl)benzoic acid] is 8.22; for `O=C(O)c1ccc(CN(CC2CCC2)C(=O)c2ccc(OCc3ccccc3F)cc2)cc1` [Example 52, 4-((N-(Cyclobutylmethyl)-4-((2-fluorobenzyl)oxy)benzamido)-methyl)benzoic acid] it is 6.43. Same read-out and setting: with `O=C(O)c1ccc(CN(CCC2CC2)C(=O)c2ccc(Oc3c(F)cccc3Cl)cc2)cc1` [Example 43, 4-((4-(2-Chloro-6-fluorophenoxy)-N-(2-cyclopropylethyl)-benzamido)methyl)benzoic acid] the figure was 7.24; with `Cc1cccc(F)c1Oc1ccc(C(=O)N(Cc2ccc(C(=O)O)cc2)CC2CCC2)cc1` [Example 41, 4-((N-(Cyclobutylmethyl)-4-(2-fluoro-6-methylphenoxy)benzamido)methyl)benzoic acid], 7.05. With `O=C(O)c1ccc(CN(CCCCc2ccccc2)C(=O)c2ccc(Oc3ccccc3F)cc2)cc1` [Example 21, 4-((4-(2-Fluorophenoxy)-N-(4-phenylbutyl)-benzamido)methyl)benzoic acid], the pIC50 at LPA5 receptor is 7.96. On the same count and under the same terms, with `O=C(O)c1ccc(CN(CCC2CCC2)C(=O)c2ccc(Oc3ccccc3F)cc2)cc1` [Example 10, 4-((N-(2-Cyclobutylethyl)-4-(2-fluorophenoxy)benzamido)-methyl)benzoic acid] the figure was 7.32; with `COc1ccc(Oc2ccc(C(=O)N(CCc3ccccc3)Cc3ccc(C(=O)O)cc3)cc2)cc1` [Example 49, 4-((4-(4-Methoxyphenoxy)-N-phenethylbenzamido)methyl)benzol acid], 5.34; with `O=C(O)c1ccc(CN(CC2CC2)C(=O)c2ccc(Oc3ccccc3Cl)cc2)cc1` [Example 35, 4-((4-(2-Chlorophenoxy)-N-(cyclopropylmethyl)benzamido)-methyl)benzoic acid], 8.15. Still for that read-out and setting: the figure for `O=C(O)c1ccc(CN(CCCc2ccccc2F)C(=O)c2ccc(Oc3ccccc3F)cc2)cc1` [Example 16, 4-((4-(2-Fluorophenoxy)-N-(3-(2-fluorophenyl)propyl)benzamido)methyl)benzoic acid] is 9.00; for `O=C(O)c1ccc(CN(CC(F)F)C(=O)c2ccc(Oc3ccccc3F)cc2)cc1` [Example 2, 4-((N-(2,2-Difluoroethyl)-4-(2-fluorophenoxy)benzamido)-methyl)benzoic acid] it is 6.16; for `O=C(O)c1ccc(CN(CCc2ccccc2)C(=O)c2ccc(Oc3ccccc3C(F)(F)F)cc2)cc1` [Example 26, 4-((N-Phenethyl-4-(2-(trifluoromethyl)phenoxy)benzamido)-methyl)benzoic acid] it is 6.59.

With `COc1cccc(Oc2ccc(C(=O)N(CCc3ccccc3)Cc3ccc(C(=O)O)cc3)cc2)c1` [Example 48, 4-((4-(3-Methoxyphenoxy)-N-phenethylbenzamido)methyl)benzoic acid], the pIC50 at LPA5 receptor was 5.48. Still for that read-out and setting: the figure for `O=C(O)c1ccc(CN(Cc2ccccc2F)C(=O)c2ccc(Oc3ccccc3F)cc2)cc1` [Example 12, 4-((N-(2-Fluorobenzyl)-4-(2-fluorophenoxy)benzamido)-methyl)benzoic acid] is 8.05; for `O=C(O)c1ccc(CN(CCC2CC2)C(=O)c2ccc(Oc3ccccc3F)cc2)cc1` [Example 9, 4-((N-(2-Cyclopropylethyl)-4-(2-fluorophenoxy)benzamido)-methyl)benzoic acid] it is 7.82. Still for that read-out and setting: the figure for `O=C(O)c1ccc(CN(Cc2ccccc2)C(=O)c2ccc(Oc3c(F)cccc3Cl)cc2)cc1` [Example 44, 4-((N-Benzyl-4-(2-chloro-6-fluorophenoxy)benzamido)-methyl)benzoic acid] is 7.96; for `CCN(Cc1ccc(C(=O)O)cc1)C(=O)c1ccc(Oc2ccccc2F)cc1` [Example 1, 4-((N-Ethyl-4-(2-fluorophenoxy)benzamido)methyl)benzoic acid] it is 6.08; for `Cc1ccccc1Oc1ccc(C(=O)N(Cc2ccc(C(=O)O)cc2)CC2CCC2)cc1` [Example 23, 4-((N-(Cyclobutylmethyl)-4-(o-tolyloxy)benzamido)methyl)benzoic acid] it is 7.36. The same measure, in the same setting: with `O=C(O)c1ccc(CN(Cc2ccccc2)C(=O)C2CCC(Oc3ccccc3F)CC2)cc1` (stereo not drawn) [Example 55, 4-((N-Benzyl-4-(2-fluorophenoxy)cyclohexanecarboxamido)-methyl)benzoic acid] the figure was 6.16; with `O=C(O)c1ccc(CN(CC2CC2)C(=O)c2ccc(Oc3c(F)cccc3Cl)cc2)cc1` [Example 42, 4-((4-(2-Chloro-6-fluorophenoxy)-N-(cyclopropylmethyl)-benzamido)methyl)benzoic acid], 7.77. For `O=C(O)c1ccc(CN(Cc2ccccc2)C(=O)c2ccc(Oc3c(F)cccc3F)cc2)cc1` [Example 39, 4-((N-Benzyl-4-(2,6-difluorophenoxy)benzamido)methyl)benzoic acid], the pIC50 on LPA5 receptor was 7.96. Take `O=C(O)c1ccc(CN(CCc2ccccc2)C(=O)c2ccc(Oc3cccc(Cl)c3)cc2)cc1` [Example 50, 4-((4-(3-Chlorophenoxy)-N-phenethylbenzamido)methyl)benzoic acid]: at LPA5 receptor, the pIC50 is 5.44. Same read-out and setting: the figure for `O=C(O)c1ccc(CN(Cc2ccccc2)C(=O)c2ccc(OCc3ccccc3F)cc2)cc1` [Example 53, 4-((N-Benzyl-4-((2-fluorobenzyl)oxy)benzamido)methyl)benzoic acid] is 7.24. Take `COC1CC(CN(Cc2ccc(C(=O)O)cc2)C(=O)c2ccc(Oc3ccccc3F)cc2)C1` (stereo not drawn) [Example 7, 4-((4-(2-Fluorophenoxy)-N-((3-methoxycyclobutyl)methyl)-benzamido)methyl)benzoic acid]: the pIC50 at LPA5 receptor is 7.51.

With `COc1ccccc1O[C@H]1CC[C@H](C(=O)N(Cc2ccccc2)Cc2ccc(C(=O)O)cc2)CC1` [Example 56, trans-4-((N-Benzyl-4-(2-methoxyphenoxy)cyclohexanecarboxamido)methyl)benzoic acid], the pIC50 at LPA5 receptor is 6.74.

Consider `O=C(O)c1ccc(CN(CC2CCC2)C(=O)c2ccc(Oc3ccccc3F)cc2)cc1` [Example 6, 4-((N-(Cyclobutylmethyl)-4-(2-fluorophenoxy)benzamido)-methyl)benzoic acid], for which, on LPA5 receptor, the pIC50 was 7.62.

As to `CCOc1ccccc1Oc1ccc(C(=O)N(Cc2ccc(C(=O)O)cc2)CC2CC2)cc1` [Example 34, 4-((N-(Cyclopropylmethyl)-4-(2-ethoxyphenoxy)-benzamido)methyl)benzoic acid], the pIC50 on LPA5 receptor was 6.34.
